Assay results from ChEMBL document CHEMBL4138060, “Development of new scaffolds as reversible tissue transglutaminase inhibitors, with improved potency or resistance to glutathione addition” (Medchemcomm, 2017).

Assays:
[1] = Inhibition of guinea pig liver transglutaminase 2; set-up: species or system Cavia porcellus
[2] = molecular target: T1, Protein-glutamine gamma-glutamyltransferase (Homo sapiens, UniProt P21980); assay: Inhibition of human transglutaminase 2
T1 sequence (P21980 whole entry): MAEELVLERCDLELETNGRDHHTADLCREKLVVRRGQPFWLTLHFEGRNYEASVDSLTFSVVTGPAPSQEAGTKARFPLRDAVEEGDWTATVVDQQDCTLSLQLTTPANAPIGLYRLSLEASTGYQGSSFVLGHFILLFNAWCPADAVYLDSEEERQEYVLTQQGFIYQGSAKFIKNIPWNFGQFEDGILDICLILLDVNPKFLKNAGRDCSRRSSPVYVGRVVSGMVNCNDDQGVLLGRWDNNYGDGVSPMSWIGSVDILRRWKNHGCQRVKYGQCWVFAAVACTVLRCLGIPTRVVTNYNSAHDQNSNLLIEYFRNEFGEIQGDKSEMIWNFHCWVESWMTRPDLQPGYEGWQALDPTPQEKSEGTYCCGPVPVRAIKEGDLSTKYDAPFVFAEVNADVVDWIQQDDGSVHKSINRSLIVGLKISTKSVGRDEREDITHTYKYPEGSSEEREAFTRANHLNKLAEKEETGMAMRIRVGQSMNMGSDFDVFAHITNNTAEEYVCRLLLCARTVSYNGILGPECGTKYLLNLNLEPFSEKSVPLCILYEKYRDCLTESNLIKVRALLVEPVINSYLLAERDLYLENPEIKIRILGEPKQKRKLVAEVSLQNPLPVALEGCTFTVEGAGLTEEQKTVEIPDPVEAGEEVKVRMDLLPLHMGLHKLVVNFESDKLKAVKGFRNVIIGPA

[3] = molecular target: T1, Protein-glutamine gamma-glutamyltransferase; assay: Inhibition of human transglutaminase 2 using N-Cbz-Glu(gamma-p-nitrophenylester)Gly (AL5) substrate measured over 10 mins by UV-visible spectrophotometry
[4] = Inhibition of guinea pig liver transglutaminase 2 using N-Cbz-Glu(gamma-p-nitrophenylester)Gly (AL5) substrate measured over 10 mins by UV-visible spectrophotometry; set-up: species or system Cavia porcellus
[5] = molecular target: T1, Protein-glutamine gamma-glutamyltransferase; assay: Competitive inhibition of human transglutaminase 2 using N-Cbz-Glu(gamma-p-nitrophenylester)Gly (AL5) substrate measured over 10 mins by UV-visible spectrophotometry based Michaelis-Menten analysis

SMILES | IC50 ([3]; read-out: IC50) | IC50 [3] | other results
O=C(/C=C/c1ccc([N+](=O)[O-])cc1)c1cccnc1 | – | – | IC50 [1]: 21 µM
O=C(/C=C/c1cccc([N+](=O)[O-])c1)c1cccnc1 | 19.6 µM | – | IC50 [1]: 3 µM; IC50 [2]: 19.6 µM; Ki [2]: 4 µM
O=C(/C=C/c1ccc([N+](=O)[O-])cc1)c1cn(Cc2ccc([N+](=O)[O-])cc2)nn1 | – | – | IC50 [4]: 2.1 µM
O=C(/C=C/c1ccc([N+](=O)[O-])cc1)n1nnc2ccccc21 | – | – | IC50 [4]: 74 µM; IC50 [1]: 74 µM
O=C(C#Cc1ccc([N+](=O)[O-])cc1)n1nnc2ccccc21 | 2.6 µM | – | –
CC(C)/C(=C\C(=O)n1nnc2ccccc21)c1ccc([N+](=O)[O-])cc1 | – | Not Active | –
O=[N+]([O-])c1cccc(-c2cc(-c3cccnc3)on2)c1 | – | Not Active | –
O=C(c1cc2cc([N+](=O)[O-])ccc2oc1=O)n1nnc2ccccc21 | 145 µM | – | –
O=C(c1cccnc1)[C@H]1C[C@@H]1c1cccc([N+](=O)[O-])c1 | 147 µM | – | –
O=C(C#Cc1ccc([N+](=O)[O-])cc1)c1cn(Cc2ccc([N+](=O)[O-])cc2)nn1 | 0.79 µM | – | Ki [5]: 0.42 µM
O=[N+]([O-])c1cccc(/C=C/C2(c3cccnc3)CO2)c1 (stereo not drawn) | 151 µM | – | –
CC(C)/C(=C/C(=O)n1nnc2ccccc21)c1ccc([N+](=O)[O-])cc1 | – | Not Active | –

Continued, in another order:

IC50 ([3]; read-out: IC50) | IC50 [3] | SMILES | other results
> 100 µM | – | O=C(c1cn(Cc2ccc([N+](=O)[O-])cc2)nn1)c1cn(Cc2cccc([N+](=O)[O-])c2)nn1 | –
– | Not Active | COc1ccc(Cn2cc(C(=O)c3cn(Cc4ccc([N+](=O)[O-])cc4)nn3)nn2)cc1 | –
– | Not Active | O=C(c1cn(Cc2ccc(C(F)(F)F)cc2)nn1)c1cn(Cc2ccc(C(F)(F)F)cc2)nn1 | –
> 100 µM | – | O=C(c1cn(Cc2ccc(OC(F)(F)F)cc2)nn1)c1cn(Cc2ccc([N+](=O)[O-])cc2)nn1 | –
– | Not Active | O=C(c1cn(Cc2ccc(Br)cc2)nn1)c1cn(Cc2ccc([N+](=O)[O-])cc2)nn1 | –
64.1 µM | – | O=C(c1cn(Cc2ccc([N+](=O)[O-])cc2)nn1)c1cn(Cc2ccccc2[N+](=O)[O-])nn1 | –
> 100 µM | – | N#Cc1ccc(Cn2cc(C(=O)c3cn(Cc4ccc([N+](=O)[O-])cc4)nn3)nn2)cc1 | –
14.1 µM | – | O=C(c1cn(Cc2ccc([N+](=O)[O-])cc2)nn1)c1cn(Cc2ccc([N+](=O)[O-])cc2)nn1 | Ki [5]: 9.9 µM
– | Not Active | O=C(c1cn(Cc2ccc(F)cc2)nn1)c1cn(Cc2ccc([N+](=O)[O-])cc2)nn1 | –
– | Not Active | C/C(=C\C(=O)n1nnc2ccccc21)c1ccc([N+](=O)[O-])cc1 | –
– | Not Active | O=C(c1cn(Cc2ccc([N+](=O)[O-])cc2)nn1)c1cn(CC2CCCCC2)nn1 | –
– | Not Active | O=C(c1cn(Cc2ccccc2)nn1)c1cn(Cc2ccc([N+](=O)[O-])cc2)nn1 | –
– | Not Active | Cc1ccc(Cn2cc(C(=O)c3cn(Cc4ccc([N+](=O)[O-])cc4)nn3)nn2)cc1 | –
25.9 µM | – | O=C(c1cn(Cc2ccc([N+](=O)[O-])cc2)nn1)c1cn(Cc2ccc(C(F)(F)F)cc2)nn1 | –
0.61 µM | – | O=C(C#Cc1ccc([N+](=O)[O-])cc1)c1cn(Cc2ccccc2)nn1 | –
